# Experiments:
# [1] = tested on: Breast cancer cells, MDA MB 468; test: breast cancer xenograft model (Example 11); assay type: in vivo, SCID mice; details: 10 mg/kg i.p. 3/week, approximately 4 weeks
# Description: Breast cancer cells, MDA MB 468 (12 million), were injected subcutaneously (s.c.) on the neck of SCID mice (CB17, female, 4-6 weeks old) (Charles River, Wilmington, Mass.). The mice were divided into four groups, 5 mice for each group. The treatments were started when the tumor volume reached about 100 mm^3, day 22 after tumor implantation. […] The tumor sizes were monitored every 3 or 4 days. […] (FIG. 12)
# [2] = tested on: Breast cancer cells, MDA MB 468; test: breast cancer xenograft model, MK0557 and 5-FU (Example 15); assay type: in vivo, CB17-SCID; details: 5-FU alone, 30 mg/kg ip q.d.×5 days
# Description: Breast cancer cells, MDA MB 468, were injected into CB17-SCID. The treatments were started day 14 after tumor implantation. […] Tumor volume and tumor growth were monitored during the experiment.
# [3] = tested on: Hodgkin Lymphoma cells, HD-MYZ; test: Hodgkin's lymphoma xenograft model, MK-0557 and 200464 (Example 16); assay type: in vivo; details: for inhibition rate (tumor volume) / inhibition rate (tumor weight): versus vehicle
# Text: Hodgkin lymphoma cells, HD-MYZ, were implanted in NOD-SCID mice, female, 4-6 weeks from Jackson's Laboratory (Maine). The treatments were started day 6 after tumor implantation. The mice were divided to six groups, 4-5 mice from each group. The treatment started with a tumor volume of about 70 mm3 after tumor implantation.
# [4] = tested on: Hodgkin Lymphoma cells, HD-MYZ; test: Hodgkin lymphoma xenograft model (Example 12); assay type: in vivo, NOD-SCID mice; details: 5 mg/kg i.p. 1/week, approximately 2 weeks
# Text: Hodgkin lymphoma cells, HD-MYZ (1 million), were implanted s.c. on the right flank of NOD-SCID mice (Cat#001303, female, 4-6 weeks from Jackson laboratories, Bar Harbor, Me.). The mice were divided into four groups, 5 mice for each group. […] The tumor growth was monitored during the experiment. […] (FIG. 13)
# [5] = tested on: Hodgkin Lymphoma cells, HD-MYZ; test: Hodgkin lymphoma xenograft model, MK0557 vs AVASTIN (Example 14); assay type: in vivo, NOD-SCID mice; details: 5 mg/kg i.p. 1/week×3 weeks
# Text: Hodgkin lymphoma cells, HD-MYZ, were implanted in NOD-SCID mice. […] Tumor volume and tumor growth were monitored during the experiment.
# [6] = group 2: 200464 20 mg/kg i.p. 3 times for each week
# [7] = group 3: 200464 40 mg/kg i.p. 3 times for each week
compound,measurement,setting,value
"O=c1[nH]cc(F)c(=O)[nH]1 [5-FU, 5-fluorouracil]",tumor growth,[1],inhibited tumor growth
same,Mean Tumor Volume,[2],434.44±56.63 mm^3
same,Mean Tumor Weight,[2],0.1892 ± 0.026 g
same,inhibition rate (tumor volume),[2]; versus vehicle,32.35%
same,inhibition rate (tumor weight),[2]; versus vehicle,26.55%
CC[C@@H]1C(=O)N(C)c2cnc(Nc3ccc(C(=O)NC4CCN(C)CC4)cc3OC)nc2N1C1CCCC1 [compound 200464],Mean Tumor Volume,[3]; [6],754.55+/−158.32 mm^3
same,Mean Tumor Weight,[3]; [6],0.8788 ± 0.2674 g
same,inhibition rate (tumor volume),[3]; [6],62.26%
same,inhibition rate (tumor weight),[3]; [6],5.42%
same,Mean Tumor Volume,[3]; [7],565.75+/−176.13 mm^3
same,Mean Tumor Weight,[3]; [7],0.5472 ± 0.2097 g
same,inhibition rate (tumor volume),[3]; [7],49.66%
same,inhibition rate (tumor weight),[3]; [7],41.11%
same,tolerability of the doses by the mice,"[3]; mouse, in vivo",well tolerated
bevacizumab [AVASTIN®],tumor growth,[4],inhibited tumor growth
same,Mean Tumor Volume,[5],672.53±85.56 mm^3
same,Mean Tumor Weight,[5],0.33 ± 0.03 g
same,inhibition rate (tumor volume),[5]; versus vehicle,74.14%
same,inhibition rate (tumor weight),[5]; versus vehicle,86.96%

# Source: patent US8765791B2, “Method of treating cancer using a neuropeptide Y 5R (NP Y5R) antagonist” (University Health Network, priority 2008, dated 2014)
